Non-standard residues stand in square brackets, D forms with d. Residues, ends and D or L forms follow the SMILES beside them. dPhe(4-Cl) = N[C@H](Cc1ccc(Cl)cc1)C(=O)O; d2Nal = N[C@H](Cc1ccc2ccccc2c1)C(=O)O; dCit = NC(=O)NCCC[C@@H](N)C(=O)O; d3Pal = N[C@H](Cc1cccnc1)C(=O)O
Legend:
[1] = test system: patients with endometriosis; conditions: 3 mg s.c. per week over eight weeks; stages rAFS I-II; cited from earlier work
[2] = test system: patients with confirmed endometriosis; assay: weekly Cetrorelix acetate treatment of nine patients with confirmed endometriosis (FIG. 1); type: in vivo, human; conditions: 3 mg s.c. weekly for 8 weeks; for hot flushes or other (estradiol) withdrawal symptoms: patients with endometriosis
estradiol serum levels = estradiol serum levels after weekly administration of cetrorelix (FIG. 2); type: in vivo
Text: […] The estradiol serum levels are between about 35-80 pg/ml, preferably between about 45-75 pg/ml, more preferably between about 50-75 pg/ml.

[3] = test system: patients with endometriosis; assay: weekly Cetrotide s.c. over eight weeks in endometriosis patients with symptomatic pain; type: in vivo, human; conditions: 3 mg s.c. per week over eight weeks
Procedure: Aim of the medicinal therapy of patients with endometriosis with symptomatic pain is to obtain a treatment without side effects, especially avoiding the negative effects of estrogen suppression and which is long-lasting after finishing therapy. The specific pharmacological mode of action of LHRH antagonists allows new possibilities for treatment of endometriosis.
The weekly administration of an adequate dose of an LHRH antagonist, e.g. 3 mg Cetrotide® s.c./per week over a period of eight weeks leads to a controlled suppression of estrogen secretion so that serum concentrations between about 35 pg/ml and about 80 pg/ml, preferably between about 45-75 pg/ml, more preferably between about 50-75 pg/ml are obtained. […] Also the development of osteoporosis can be avoided.

For CC(=O)N[C@H](Cc1ccc2ccccc2c1)C(=O)N[C@H](Cc1ccc(Cl)cc1)C(=O)N[C@H](Cc1cccnc1)C(=O)N[C@@H](CO)C(=O)N[C@@H](Cc1ccc(O)cc1)C(=O)N[C@H](CCCNC(N)=O)C(=O)N[C@@H](CC(C)C)C(=O)N[C@@H](CCCNC(=N)N)C(=O)N1CCC[C@H]1C(=O)N[C@H](C)C(N)=O [Cetrorelix acetate] (Ac-[d2Nal][dPhe(4-Cl)][d3Pal]SY[dCit]LRP[dA]-NH2), which “clinical regression of the disease (decrease of the implantation area)” value [1] is on record?
The value was “clinical regression of the disease”.

And the “proliferation of the endometrium at the end of treatment (histological biopsies)” value [2]?
Its value is “no proliferation of the endometrium”.

What about the “proliferation of the endometrium at the end of treatment (histological biopsies)” value ([2]; listed as Cetrorelix) of the same compound?
The value was “without proliferation of the endometrium”.

What about the ovarian cyst formation ([2]; nine patients) of the same compound?
Its ovarian cyst formation is “No ovarian cyst formation occurred”.

What about the “progress of the disease confirmed by 2nd look laparascopy” value ([2]; nine patients) of the same compound?
The value was “without any progress of the disease”.

And the “hot flushes or other (estradiol) withdrawal symptoms” value [2]?
Its value is “avoiding any hot flushes or other withdrawal symptoms”.

What about the “hot flushes or other (estradiol) withdrawal symptoms” value ([2]; listed as Cetrorelix) of the same compound?
The value was “without any signs of estradiol withdrawal symptoms”.

What about the “estradiol serum levels (FIG. 2)” value (estradiol serum levels; weekly dose of 1 mg once per week) of the same compound?
Its value is 35 to 80 pg/mL.

And the “estradiol serum levels (FIG. 2)” value (estradiol serum levels; weekly dose of 3 mg once per week)?
The value was 35 to 80 pg/mL.

What about the symptomatic pain ([3]; all stages of the disease (rAFS I-IV)) of the same compound?
Its symptomatic pain is “effectively suppressed”.

What about the vegetative symptoms ([3]; serum concentration range about 35-80 pg/ml) of the same compound?
The vegetative symptoms was “no vegetative symptoms arise”.

From patent US7666836B2, “Method for the therapeutic management of endometriosis” (priority 1999, dated 2010)
